# Values joined by “and” are separate entries in the source; they are usually repeats but may differ in a detail not shown here. Equal entries are not always repeated.
# Legend:
# [1] = tested on: Dd2 parent parasites; assay: Parasite proliferation assay, Dd2 parent; format: cell-based, Plasmodium falciparum; conditions: Dd2 parent; mean ± SEM; read-out: IC50 value, growth inhibition
# Experimental: Parasite proliferation was measured in 96-well plates using a fluorescent DNA-intercalating dye [45]. The assays were initiated with erythrocytes infected with predominantly ring-stage parasites, and the starting parasitaemia was 0.5–1% and the haematocrit was 1%.
# [2] = target: T1, native PfFNT (Plasmodium falciparum, UniProt O77389); format: cell-based; conditions: native PfFNT in Xenopus oocytes; pH 6.4, 27.5°C, 10 min; mean ± SEM, n = 4; read-out: IC50, inhibition of PfFNT-mediated L-[14C]lactate transport
# T1 construct: expressed in transfected cells; host or cells: Xenopus laevis oocytes (cRNA microinjected, 30 ng)
# T1 sequence (O77389 whole entry): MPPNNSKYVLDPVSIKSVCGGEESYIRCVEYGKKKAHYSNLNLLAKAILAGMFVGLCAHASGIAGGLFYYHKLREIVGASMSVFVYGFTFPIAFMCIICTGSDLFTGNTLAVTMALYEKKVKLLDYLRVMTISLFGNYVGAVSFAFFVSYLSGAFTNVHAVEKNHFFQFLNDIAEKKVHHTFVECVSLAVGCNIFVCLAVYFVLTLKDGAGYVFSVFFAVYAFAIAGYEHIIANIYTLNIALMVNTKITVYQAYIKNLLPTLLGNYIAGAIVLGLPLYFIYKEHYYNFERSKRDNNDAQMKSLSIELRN
# Experimental: (§1) The PfFNT-mediated uptake of L-[^14C]lactate by oocytes expressing native PfFNT (black symbols) or oocytes expressing PfFNT^Gly107Ser (white symbols) was measured in the presence of a range of different concentrations of MMV007839 (A) and MMV000972 (B). […] To enable a visual comparison between the native PfFNT and PfFNT^Gly107Ser datasets, only part of the concentration range used for the latter is shown in the main panels. The insets show the data obtained for PfFNT^Gly107Ser over the full concentration range tested. In all cases, the data are averaged from four independent experiments (using oocytes from different frogs) and are shown ± SEM. The uptake was measured at 27.5°C over 10 min at pH 6.4 using 2.7 μM L-[^14C]lactate and 600 μM unlabelled L-lactate.
# (§2) The oocyte expression vectors containing PfFNT, PfENT1 and PfCRT were made previously. […] The uptake of radiolabelled substrates was measured 2–5 days post-injection at 27.5°C in ND96 buffer (containing 96 mM NaCl, 2 mM KCl, 1 mM MgCl2, 1.8 mM CaCl2, 10 mM MES and 10 mM Tris-base; pH-adjusted to the value specified in the relevant Figure legends). […] The oocytes were then transferred to separate wells of a 96-well plate, lysed with 10% SDS, and the radioactivity measured as described previously.
# [3] = target: T2, PfFNT^Gly107Ser (Plasmodium falciparum, UniProt O77389, G107S); assay: PfFNT-mediated L-[14C]lactate uptake by Xenopus oocytes expressing PfFNT Gly107Ser; format: cell-based; conditions: PfFNT Gly107Ser in Xenopus oocytes; pH 6.4, 27.5°C, 10 min; mean ± SEM, n = 4; read-out: IC50, inhibition of PfFNT-mediated L-[14C]lactate transport
# T2 construct: expressed in transfected cells; host or cells: Xenopus laevis oocytes (cRNA microinjected, 30 ng)
# T2 sequence (O77389 1-309 G107S): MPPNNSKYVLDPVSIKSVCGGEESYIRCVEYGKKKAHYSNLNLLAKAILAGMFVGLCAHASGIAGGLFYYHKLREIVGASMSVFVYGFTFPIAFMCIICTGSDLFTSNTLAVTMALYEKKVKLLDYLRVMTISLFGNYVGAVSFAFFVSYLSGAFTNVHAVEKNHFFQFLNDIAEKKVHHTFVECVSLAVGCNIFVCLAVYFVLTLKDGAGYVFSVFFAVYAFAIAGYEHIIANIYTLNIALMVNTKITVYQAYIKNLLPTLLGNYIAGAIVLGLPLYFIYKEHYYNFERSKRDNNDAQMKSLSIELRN
# Experimental: as §1, §2
# [4] = tested on: non-injected oocytes; format: cell-based, Xenopus laevis; conditions: full range of inhibitor concentrations
# [5] = tested on: erythrocytes infected with 3D7 trophozoites; format: cell-based, Plasmodium falciparum; conditions: 1 μM, within 10 min; mean ± SEM, n = 3
# Text: (§3) Fig 6 The effect of MMV007839 on the volume of parasites and parasitised erythrocytes. […] The data are expressed as a percentage volume increase relative to the starting volume, which for isolated parasites (A) ranged from 35 fL to 46 fL in the individual experiments, and for intact infected erythrocytes (B) ranged from 73 fL to 79 fL. In both cases the data shown are the mean ± SEM from three independent experiments performed on different days. For each condition, the (pre-normalised) volume data for each time point greater than 0 was tested for statistical significance compared to the time zero data for that condition; **P < 0.01, ***P < 0.001.
# (§4) The volume of saponin-isolated 3D7 trophozoites and of erythrocytes infected with 3D7 trophozoites was measured using a Beckman Coulter Multisizer 4 fitted with a 100 μm ‘aperture tube’. […] The electrolyte solution within the aperture tube was the same as the Experimental Saline Solution except that it lacked glucose. For experiments on infected erythrocytes, the infected cells were separated from uninfected erythrocytes using a Miltenyi Biotec VarioMACS Magnet and the cells were maintained at 37°C in bicarbonate-free RPMI supplemented with 25 mM HEPES, additional glucose (11 mM) and 0.2 mM hypoxanthine, and pH-adjusted to 7.40. For these measurements the electrolyte solution within the aperture tube differed only from this medium in that it was not supplemented with hypoxanthine or additional glucose. For each measurement of cell volume, approximately 20,000 pulses (each corresponding to the passage of a single cell through the aperture) were recorded. The median volume of the cells within each sample was determined by fitting a log Gaussian distribution curve to the population data.
# [6] = tested on: saponin-isolated 3D7 P. falciparum trophozoites; format: cell-based, Plasmodium falciparum; conditions: 1 μM, within 10 min; mean ± SEM, n = 3
# Text: as §3, §4
# [7] = ref [36]; cited from earlier work
# [8] = tested on: isolated 3D7 P. falciparum trophozoites; assay: L-[14C]lactate uptake by isolated 3D7 trophozoites; conditions: pH 6.1, 4°C, 20 s
# [9] = tested on: PfFNT^Gly107Ser mutant parasites (MMV007839-selected culture B); assay: L-[14C]lactate uptake by isolated PfFNT Gly107Ser mutant parasites; conditions: read-out: IC50, inhibition of L-[14C]lactate transport, pH 6.1, 4°C, 20 s, mean ± SEM
# [10] = tested on: 3D7 parasites; assay: Parasite viability after timed exposure and washout (parasitaemia on Day 3); conditions: 6 μM; for Effect on parasite viability: parasitaemia three days later
# [11] = tested on: 3D7 P. falciparum trophozoites; assay: Cytosolic pH (pHcyt) measurement in BCECF-loaded saponin-isolated trophozoites
smiles,measurement,setting,value
COc1ccc2c(c1)OC(O)(C(F)(F)C(F)(F)F)CC2=O (centres unmarked) [MMV007839],IC50,[1],0.14 ± 0.02 µM
same,IC50,[2],0.0225 µM and 0.023 µM
same,IC50,[3],1.3 ± 0.2 µM
same,Effect on L-[14C]lactate transport into control (non-injected) oocytes,[4],no changes
same,Volume increase of erythrocytes infected with 3D7 trophozoites,[5],5.4 ± 1.0 fL
same,Volume increase of erythrocytes infected with 3D7 trophozoites relative to starting volume,[5],7.2 ± 1.3%
same,Volume increase of isolated parasites,[6],5.1 ± 0.8 fL
same,Volume increase of isolated parasites relative to starting volume,[6],13.1 ± 2.8%
same,Toxicity in Malaria Box toxicity testing,[7],display toxicity in some assays
same,Inhibition of L-[14C]lactate influx,[8]; 0.5 μM,inhibited L-[^14C]lactate influx to a similar degree
same,Inhibition of L-[14C]lactate uptake,[8]; 2 μM,complete inhibition
same,IC50,[9],16.3 ± 4.4 µM
same,Effect on parasite viability,[10]; 1 h exposure,did not significantly affect
same,Effect on parasite viability,[10]; 3 h exposure,did not significantly affect
same,"Parasitaemia three days after exposure, of control levels","[10]; 6 h exposure, mean ± SEM, n = 3",49 ± 7%
same,Lactate-induced abrupt acidification of parasite cytosol after pre-treatment,"[11]; 2.5 μM pre-treatment, 10 mM L-lactate, 4°C",no such abrupt acidification
same,Rate of cytosolic acidification after addition of lactate,"[11]; 2.5 μM, 4°C, 10 mM L-lactate, mean ± SEM, n = 3",0.011 ± 0.004 pH unit/min
same,Rate of cytosolic acidification before addition of lactate,"[11]; 2.5 μM, 4°C, mean ± SEM, n = 3",0.011 ± 0.003 pH unit/min
same,Cytosolic pH restored after restoration of glucose,"[11]; 2.5 μM, glucose (22 mM) restored to glucose-deprived parasites, gradual alkalinisation after initial acidification of ~2 min",approximately 7.1
same,Effect on cytosolic pH in glucose-containing medium,"[11]; glucose-containing medium, 37°C (Fig 2B,C: 1 μM)",cytosolic acidification
